Reference: US20250171417A1, “HETEROCYCLIC DERIVATIVE, AND COMPOSITION AND PHARMACEUTICAL USE THEREOF” (Xizang Haisco Pharmaceutical Co., Ltd., priority 2021, published 2025)

Legend:
[1] = Pharmacokinetic test in rats; assay type: in vivo; settings: rat, plasma, po, male SD rats
Experimental: Test objective: In this experiment, a single dose of each test compound was administered to SD rats intravenously and intragastrically, and the concentrations of the test compounds in plasma of rats were measured to evaluate the pharmacokinetic characteristics of the test compounds in rats.
Experimental animals: male SD rats, 200-250 g, 6-8 weeks old, 6 rats/compound, purchased from Chengdu Ddossy Experimental Animals Co., Ltd.
Experimental method: on the day of the test, 6 SD rats were randomly grouped according to their body weight; the animals were fasted with water available for 12 to 14 hours one day before the administration of a test compound, and were fed 4 hours after the administration.
Sampling: Before and after the administration, 0.1 mL of blood samples were drawn from the orbits of the animals under isoflurane anesthesia, and placed in an EDTAK2 centrifuge tube. Centrifugation was carried out at 5000 rpm at 4° C. for 10 min, and the plasma was collected.
Time points for plasma collection in IV&PO group: 0, 5 min, 15 min, 30 min, 1 h, 2 h, 4 h, 6 h, 8 h, and 24 h.
Before analysis and detection, all samples were stored at −60° C. The samples were analyzed quantitatively by LC-MS/MS.

[2] = system: AR splice variants (AR-Vs); experiment: Degradation experiment on AR splice variants (AR-Vs) in 22RV1 cells; assay type: cell-based; settings: 2 μM, 24 h
Experimental: (§1) Prostate cancer cells 22RV1 were purchased from ATCC, the cell medium was 1640+10% FBS, and the cells were cultured in an incubator at 37° C. under 5% CO2. On day 1, the cells in an exponential phase were collected. With a 1% css-FBS phenol red-free medium, the cell suspension was adjusted to a corresponding concentration and plated into a 6-well plate at 1 mL/well and 100000 cells/well. The next day, a 1% css-FBS phenol-free medium containing the compound to be tested was added, a 1% css-FBS phenol-free medium containing 0.2% DMSO was added to one well as DMSO vehicle control, and the 6-well plate was cultured in an incubator at 37° C. under 5% CO2. After 24 h, the cells were digested with pancreatin and collected into a 1.5 mL centrifuge tube. […] The supernatant protein samples were collected, and protein quantification was performed by a BCA method. AR-FL and AR-Vs were detected using fully automatic protein expression quantitative analysis, which involved diluting the protein to be tested to 1 mg/mL, 4 μL of the diluted protein samples were added to 1 μL of […] (provided in the kit), and the prepared samples were denatured at 95° C. for 5 min and placed on ice for use. […] The prepared reagents were successively added to an assay plate according to instructions of the kit and detected on an instrument. […]

Full-length AR (AR-FL) = experiment: Degradation experiment on full-length AR (AR-FL) in 22RV1 cells; assay type: cell-based; settings: 2 μM, 24 h
Experimental: as §1

- bioavailability ([1]; i.g. 5 mg/kg vs intravenous 2 mg/kg): 51.2 ± 9.7%
- AUC(0-t) ([1]; i.g. 5 mg/kg): 29400 ± 5590 ng·h/mL
Compound: CC(C)(C(=O)Nc1cnc(C#N)c(C(F)(F)F)c1)n1cc(C#CC2CN(c3ccc4c(c3)C(=O)N(C3CCC(=O)NC3=O)C4=O)C2)cn1 (stereo not shown) [Compound 4, N-(6-cyano-5-(trifluoromethyl)pyridin-3-yl)-2-(4-((1-(2-(2,6-dioxopiperidin-3-yl)-1,3-dioxoisoindolin-5-yl)azetidin-3-yl)ethynyl)-1H-pyrazol-1-yl)-2-methylpropanamide]
- degradation effect on AR-Vs [2]: significant degradation effect
- degradation effect on AR-FL (Full-length AR (AR-FL)): significant degradation effect
